Entries after “also recorded” stand apart in the source; their conditions may differ.
Experiments:
[1] = test system: las quorum sensing system (lasB-gfp(ASV) Plac-lasR); experiment: pMHLAS lasB-gfp(ASV) reporter in E. coli MT102; type: cell-based, Escherichia coli; conditions: E. coli MT102 host, data not shown
Method: (§1) AHL and furanone bioassay. Strains were grown exponentially in LB or ABt medium supplemented with 0.5% glucose at 30° C., shading at 250 rpm. At an optical density of approximately 0.8. the cultures were diluted and split into subcultures in glass culture flasks. AHLs and furanone 56 were added to appropriate concentrations and the cultures were further incubated at 30° C. under vigorous shaking. Culture samples were retrieved at various time intervals and green fluorescence was measured with a fluorometer (model RF-1501, Shimadzu, Tokyo, Japan) set at an excitation wavelength of 475 nm and emission wavelength of 515 nm. Relative fluorescence was calculated as green fluorescence normalized to 1 ml culture divided by the optical density (OD600 nm.
Initially, the lasB-gfp(ASV) translational fusion (OdDHL sensor) was thoroughly characterized with respect to its sensitivity and specificity. A culture of E. coli hosting the pMHLAS monitor plasmid was diluted and spilt into several subcultures which were then supplemented with AHLs at concentrations ranging from 0 to 1000 nM. […] When the pMHLAS based reporter system was hosted by PAO-JP2. the OdDHL concentration required for half-maximal activation of the lasB-gfp(ASV) fusion was 8 nM (data not shown). In single copy on the chromosome of PAO-JP2, the OdDHL concentration on required for half-maximal activation of lasB expression was approximately 250 nM (FIG. 2b). Green fluorescent cells were visible by epifluorescence microscopy at a minimal OdDHL concentration of 50 nM (FIG. 2c).
Effect of the furanone in a heterologous background. The direct regulation exerted by the las regulon on lasB expression is well described by numerous studies (Gambello & Iglewski, 1991: Pearson et al., 1994; Pearson et al., 1997). Regulatory complexity is added by the observation that the las quorum sensing circuit itself is subject to global regulators (Albus et al., 1997; Whiteley et al., 2000) and that lasB expression is also controlled by other regulators than LasR (Brumlik & Storey, 1992; Pesci et al., 1999; Schictman et al., 1995). It was, therefore, important to rule out that QSI effect, observed is not caused by furanone interaction with high levels of control. Since there is no AHL-based quorum sensing system present in Escherichia coli (Williams et al., 2000), this bacterium provides an unbiased and well-defined genetic background for studying the direct effects of the furanone on the P. aeruginosa las quorum sensing system. We repeated the above-described experiments using E. coli MT102 as a heterologous host for the reporter system. […] This is likely to be attributed to the increased copy number of the reporter plasmid.

[2] = test system: V. fisheri lux quorum sensing system (LuxR); experiment: V. fisheri luxR PluxI-gfp(ASV) reporter in PAO-JP2 biofilm; type: cell-based, Pseudomonas aeruginosa
Method: P. aeruginosa biofilms. Biofilms were grown at 30° C. in three-dimensional flow cells (Christensen et al., 1999) with individual channel dimensions of 0.3×4×40 mm supplied With ABt minimal medium supplemented with 2% LB. The flow system was assembled and prepared as described by Christensen et al. (1999). The substratum consisted of a microscope glass coverslip (Knittel 24×50 mm st1, Knittel Glaser, Braunschweig, Germany). Cultures for inoculation of the flow channels were prepared in the following way: P. aeruginosa strains were streaked on LB plates with the appropriate antibiotics and incubated for 24 h at 37° C. From each plate a single colony was used for inoculation of 10 ml ABt with 10% LB. The cultures were grown at, 30° C. for 18 h before they were diluted to an OD600 nm of 0.1 in sterile 0.9% NaCl and used for inoculation of the flow channels. Medium flow was kept at a constant rate of 3 mL/h, equivalent to a mean flow velocity of 0.7 mm/s, using a Watson-Marlow 205S peristaltic pump (Watson-Marlow, Falmouth, England). Biofilms were grown for 24 hours before being shifted to media containing AHL and furanone.
Scanning confocal laser microscopy (SCLM). Microscopic inspection and image acquisition were performed an a scanning confocal laser microscope (model TCS4D, Leica Lasertechnik GmbH, Heldelberg, Germany) equipped with a 63×/1.32-0.6 oil objective. The microscope was equipped with a motorized and programmable xy-stage, which was used for monitoring single colonies during the biofilm experiments. At the beginning of each online experiment, the microscope was programmed to track single randomly selected microcolonies; the sensitivity of photo multipliers and the laser intensity were adjusted and thereafter kept constant through out the duration of the experiments. Image scanning was carried out using the 488 nm and 568 nm lines of an Ar/Kr laser for detection of Gfp and Rfp, respectively. Visualization of captured images was performed using the IMARIS software package (Bitplane AG, Zúrich, Switzerland) running on a Silicon Graphics Indigo 2 workstation (Silicon Graphics, Mountain View, Calif. USA).
Repression of LuxR-activated quorum sensing controlled gene transcription. We speculated that the AHL-antagonstic properties of furanone 56 was specific to the P. aeruginosa las quorum sensing system. To test this, a previously published quorum sensing reporter based on the Vibro fisherf luxR gene and Pluxl-gfp(ASV) (Anderson at al, 2001; Wu et al, 2000) was transferred to PAO-JP2.

elastase = experiment: Virulence factor production: elastase (proteolytic) activity of PAO-JP2 supernatant; type: cell-based, Pseudomonas aeruginosa; conditions: PAO-JP2, 70 nm OdDHL plus 3 μg/ml and 5 μg/ml furanone 56
Method: Measurements of virulence factors. PAO-JP2 was grown in LB medium at 37° C. and shaking at 250 rpm to an OD600 nm of 1.0. The culture was divided into seven subcultures, which were added 0, 70, or 1000 nm OdDHL and 0. 3. or 5 μg/ml furanone 58. The cultures were grown for an additional 4 hours at 37° C. The proteolytic activity was measured as described by Ayora & G{overscore (o)}tz (1994). Azocasein (250 μl 2%, Sigma, St. Louis, Mo.) in 50 mM Tris/HCl and steril-filtered (Ø 0.2 μm) supernatant (150 μl) were incubated for 4 h at […] After precipitation of undigested substrate with trichloroacetic acid (1.2 ml 10%) for 15 minutes, followed by 10 minutes centrifugation at 1000 rpm, NaOH (1.4 ml 1 M) were added to the supernatant. The relative protease activity was measured as the absorbance at 440 nm (OD440 nm) of the supernatant divided by the optical density of the culture (OD600 nm ).

[3] = test system: las quorum sensing system (lasB-gfp(ASV) expression); experiment: PlasB-gfp(ASV) reporter in planktonic wild type P. aeruginosa PAO1; type: cell-based, Pseudomonas aeruginosa; conditions: for reduction in lasB(ASV) expression: wild type P. aeruginosa
Method: as §1
The PlasB-gfp(ASV) reporter was inserted into the chromosome of wild type P. aeruginosa. […] The quorum size for lasB-gfp(ASV) induction corresponded to a cell density slightly above […] of 1.0, which is in agreement with other reports (Brumilk & Storey, 1992).

Structure (SMILES): O=C1C=C/C(=C/Br)O1 [furanone 56]
- QSI activity / lasB promoter activity in heterologous E. coli background [1]: repressed lasB promoter activity
- QSI activity / lasB promoter activity in heterologous E. coli background ([1]; listed as furanone): observed
- green fluorescence of biofilm ([2]; 250 nM OHHL and 15 μg/ml furanone 56, 7 hours): completely disappeared
- green fluorescence of biofilm ([2]; 250 nM OHHL and 15 μg/ml furanone 56, six hours): almost completely disappeared
- green fluorescence of biofilm ([2]; 250 nM OHHL and 15 μg/ml furanone 56, two hours): significantly less green fluorescent; also recorded: decreased significantly
- elastase activity (elastase): close to the uninduced level
- reduction in lasB(ASV) expression ([3]; 5 μg/ml (28.5 μM) furanone): 40%
- reduction in lasB(ASV) expression ([3]; 10 μg/ml furanone): 60%
- reduction of transcription of the lasB promoter ([3]; planktonic cultures of PAO1): approximately 2 fold
